Earlier results as cited in US7271001B2, “Method for mitochondrial targeting of p53” (The Research Foundation of State University of New York, priority 2004, dated 2007).

How the values were obtained:
tumor xenografts = tumor xenografts in nude mice
[1] = system: tumor-derived p53 mutant proteins; settings: cell-based assays in vitro

Compound	tumor growth (tumor xenografts)	restoration of transcriptional p53 function [1]
O=C1C2CCN(CC2)C1(CO)CO [PRIMA-1]	slow tumor growth	can restore transcriptional p53 function
COc1ccc(/C=C/c2nc(NCCCN(C)C)c3ccccc3n2)cc1 [CP-31398]	slow tumor growth	can restore transcriptional p53 function
